From paper PMC12136037, “Type II kinase inhibitors that target Parkinson’s disease–associated LRRK2” (Science Advances, 2025)
Values joined by “and” are separate entries in the source; they are usually repeats but may differ in a detail not shown here. Identical values can stand only once.

Molecular target: T1, LRRK2^RCKW (Homo sapiens, UniProt Q5S007)
T1 construct: LRRK2 R1327 to E2527; His6-Z-tag (TEV cleavable) (N, cleaved yes); host or cells: Sf9 insect cells (baculovirus)
T1 sequence (Q5S007 1327-2527): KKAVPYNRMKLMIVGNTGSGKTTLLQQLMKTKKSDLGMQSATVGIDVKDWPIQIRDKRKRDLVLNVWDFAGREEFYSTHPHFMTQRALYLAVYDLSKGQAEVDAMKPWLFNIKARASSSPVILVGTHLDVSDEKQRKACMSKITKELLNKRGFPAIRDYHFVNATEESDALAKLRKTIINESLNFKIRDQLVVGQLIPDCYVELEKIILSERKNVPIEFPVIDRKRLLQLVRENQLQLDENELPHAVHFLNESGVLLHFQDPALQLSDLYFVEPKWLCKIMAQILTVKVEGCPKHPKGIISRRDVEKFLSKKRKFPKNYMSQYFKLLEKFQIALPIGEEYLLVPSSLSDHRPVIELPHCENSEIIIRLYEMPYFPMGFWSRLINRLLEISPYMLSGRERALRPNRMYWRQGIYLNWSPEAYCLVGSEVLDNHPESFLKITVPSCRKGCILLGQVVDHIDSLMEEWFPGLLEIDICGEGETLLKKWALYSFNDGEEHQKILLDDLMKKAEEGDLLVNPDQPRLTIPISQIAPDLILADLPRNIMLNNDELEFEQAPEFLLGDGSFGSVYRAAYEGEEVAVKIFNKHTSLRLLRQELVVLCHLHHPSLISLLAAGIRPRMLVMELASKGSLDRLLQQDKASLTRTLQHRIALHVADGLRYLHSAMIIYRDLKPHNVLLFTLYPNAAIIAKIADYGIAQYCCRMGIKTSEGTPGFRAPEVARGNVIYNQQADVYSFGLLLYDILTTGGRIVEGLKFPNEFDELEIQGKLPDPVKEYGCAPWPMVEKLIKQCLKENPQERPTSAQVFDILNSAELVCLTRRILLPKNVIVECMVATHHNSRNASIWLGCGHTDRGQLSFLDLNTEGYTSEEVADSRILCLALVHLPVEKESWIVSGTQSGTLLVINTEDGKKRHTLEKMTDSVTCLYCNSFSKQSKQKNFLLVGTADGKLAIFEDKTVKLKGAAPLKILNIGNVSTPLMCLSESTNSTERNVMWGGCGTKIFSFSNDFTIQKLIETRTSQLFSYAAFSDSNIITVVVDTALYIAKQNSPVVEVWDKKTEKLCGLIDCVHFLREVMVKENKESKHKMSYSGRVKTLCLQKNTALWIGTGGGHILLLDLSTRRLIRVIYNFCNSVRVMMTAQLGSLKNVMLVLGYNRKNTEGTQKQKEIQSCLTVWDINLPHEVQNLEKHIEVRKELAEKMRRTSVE
Experiment: MS-based activity assay, Rab8a phosphorylation (pT72)
Type: biochemical
Settings: for % phosphorylation: Rab8a; for % phosphorylation / Normalized: single runs; for LRRK2RCKW activity (% control): mean of n=3; for IC50: mass spectrometry, 1 mM ATP, 4 h, read-out: IC50, LRRK2^RCKW-mediated phosphorylation of Rab8a; for Normalized: normalized % phosphorylation of Rab8a
Procedure: To determine IC50 values for selected inhibitors, activity assay was performed using LRRK2^RCKW and Rab8A substrate (table S4). LRRK2^RCKW (20 nM) was incubated with 5 μM substrate and a concentration series of the respective inhibitor in 20 mM Hepes (pH 7.4), 100 mM NaCl, 0.5 mM TCEP, 0.5% glycerol, 20 μM GDP, and 2.5 mM MgCl2. The reaction was started by adding 1 mM ATP and incubated at room temperature for 4 hours. The phosphorylation reaction was stopped by addition of MS buffer (0.1% formic acid in water). Reaction mix (5 μl) was injected into an Agilent 6230 electrospray ionization time-of-flight mass spectrometer coupled to a 1260 Infinity liquid chromatography unit (flow rate at 0.4 ml/min using a solvent gradient of water to acetonitrile with 0.1% formic acid). Data were acquired using the MassHunter LC/MS Data Acquisition software and analyzed using the BioConfirm vB.08.00 tool (both Agilent Technology, www.agilent.com/en/product/software-informatics/mass-spectrometry-software, RRID: SCR_016657).
Peak intensities of unphosphorylated and phosphorylated Rab8A were quantified, and the relative kinase activity was calculated as a ratio. To determine the IC50, a nonlinear regression with variable slope was fitted to the datapoints with GraphPad Prism (www.graphpad.com/, RRID:SCR_002798). (For step-by-step protocol, see dx.doi.org/10.17504/protocols.io.6qpvr385ovmk/v2.)

[1] = inhibitor 0.21 (0.212), listed as RN277
[2] = inhibitor 0.64 (0.635), listed as RN277
[3] = inhibitor 1.91 (2), listed as RN277
[4] = inhibitor 5.72 (6), listed as RN277
[5] = inhibitor 17.15 (17), listed as RN277
[6] = inhibitor 51.44 (51), listed as RN277
[7] = inhibitor 154.32 (154), listed as RN277
[8] = inhibitor 462.96 (463), listed as RN277
[9] = inhibitor 1388.89 (1389), listed as RN277
[10] = inhibitor 4166.67 (4167), listed as RN277
[11] = inhibitor 12500, listed as RN277
[12] = inhibitor 0.21 (0.212), listed as RN341
[13] = inhibitor 0.64 (0.635), listed as RN341
[14] = inhibitor 1.91 (2), listed as RN341
[15] = inhibitor 5.72 (6), listed as RN341
[16] = inhibitor 17.15 (17), listed as RN341
[17] = inhibitor 51.44 (51), listed as RN341
[18] = inhibitor 154.32 (154), listed as RN341
[19] = inhibitor 462.96 (463), listed as RN341
[20] = inhibitor 1388.89 (1389), listed as RN341
[21] = inhibitor 4166.67 (4167), listed as RN341
[22] = inhibitor 12500, listed as RN341

SMILES: Cc1ccc(-n2nc(C(C)(C)C)cc2NC(=O)Nc2cccc(-c3c[nH]c4nc(Cl)nc(N5CCOCC5)c34)c2)cc1 [Compound 30]
- % phosphorylation [1]: 60.4% and 59.2% and 60.0%
- % phosphorylation [2]: 61.6% and 60.3% and 62.2%
- % phosphorylation [3]: 60.4% and 59.2%
- % phosphorylation [4]: 61.0% and 59.5% and 59.1%
- % phosphorylation [5]: 52.8% and 50.7% and 48.4%
- % phosphorylation [6]: 34.0% and 33.1% and 33.2%
- % phosphorylation [7]: 18.1% and 19.7% and 20.2%
- % phosphorylation [8]: 8.2% and 8.7% and 10.4%
- % phosphorylation [9]: 5.3% and 5.2% and 5.4%
- % phosphorylation [10]: 4.0% and 5.6%
- % phosphorylation [11]: 4.6% and 3.7% and 4.4%
- LRRK2RCKW activity (% control) (inhibitor 0.64 nM): 102.03 % control
- LRRK2RCKW activity (% control) (inhibitor 5.72 nM): 99.57 % control
- LRRK2RCKW activity (% control) (inhibitor 17.15 nM): 84.23 % control
- LRRK2RCKW activity (% control) (inhibitor 51.44 nM): 55.63 % control
- LRRK2RCKW activity (% control) (inhibitor 154.32 nM): 32.20 % control
- LRRK2RCKW activity (% control) (inhibitor 462.96 nM): 15.20 % control
- LRRK2RCKW activity (% control) (inhibitor 1388.89 nM): 8.77 % control
- IC50: 70 nM
- Normalized [1]: 100.1 and 100.0 and 98.5
- Normalized [2]: 102.0 and 101.9 and 102.2
- Normalized [3]: 99.9 and 100.1 and 99.3
- Normalized [4]: 100.9 and 100.6 and 97.0
- Normalized [5]: 87.4 and 85.7 and 79.5
- Normalized [6]: 56.4 and 55.8 and 54.6
- Normalized [7]: 29.8 and 32.7 and 34.1
- Normalized [8]: 13.5 and 14.4 and 17.6
- Normalized [9]: 8.6 and 9.0
- Normalized [10]: 6.6 and 9.5
- Normalized [11]: 7.5 and 6.1

SMILES: CCSc1nc(NC)c2c(-c3cccc(NC(=O)Nc4cc(C(C)(C)C)nn4-c4ccc(C)cc4)c3)c[nH]c2n1 [Compound 32]
- % phosphorylation [12]: 66.5% and 61.3% and 65.1%
- % phosphorylation [13]: 67.4% and 62.2% and 63.1%
- % phosphorylation [14]: 64.1% and 60.1% and 61.1%
- % phosphorylation [15]: 63.8% and 59.4% and 61.3%
- % phosphorylation [16]: 55.5% and 52.5% and 53.7%
- % phosphorylation [17]: 47.7% and 41.6% and 46.5%
- % phosphorylation [18]: 25.7% and 23.0% and 24.6%
- % phosphorylation [19]: 11.0% and 11.8% and 10.3%
- % phosphorylation [20]: 8.0% and 8.8% and 7.9%
- % phosphorylation [21]: 5.7% and 6.7% and 6.1%
- % phosphorylation [22]: 5.9% and 7.2% and 6.3%
- LRRK2RCKW activity (% control) (inhibitor 0.64 nM): 100.63 % control
- LRRK2RCKW activity (% control) (inhibitor 5.72 nM): 96.37 % control
- LRRK2RCKW activity (% control) (inhibitor 17.15 nM): 84.53 % control
- LRRK2RCKW activity (% control) (inhibitor 51.44 nM): 70.93 % control
- LRRK2RCKW activity (% control) (inhibitor 154.32 nM): 38.27 % control
- LRRK2RCKW activity (% control) (inhibitor 462.96 nM): 17.40 % control
- LRRK2RCKW activity (% control) (inhibitor 1388.89 nM): 12.93 % control
- IC50: 110 nM
- Normalized [12]: 99.7 and 99.1 and 103.7
- Normalized [13]: 101.0 and 100.4 and 100.5
- Normalized [14]: 96.1 and 97.0 and 97.3
- Normalized [15]: 95.6 and 96.0 and 97.5
- Normalized [16]: 83.2 and 84.9 and 85.6
- Normalized [17]: 71.6 and 67.2 and 74.0
- Normalized [18]: 38.5 and 37.1 and 39.2
- Normalized [19]: 16.6 and 19.1 and 16.5
- Normalized [20]: 12.0 and 14.2 and 12.6
- Normalized [21]: 8.5 and 10.8 and 9.6
- Normalized [22]: 8.9 and 11.6 and 10.1
